In PMC10178864, “Identification, Baculoviral Expression, and Biochemical Characterization of a Novel Cholinesterase of Amblyomma americanum (Acari: Ixodidae)” (International Journal of Molecular Sciences, 2023):
Where two headings read alike, the source gives them in different places.

Tests used:
[1] = system: T1, rAaChE1 (recombinant AaChE1, A. americanum cholinesterase 1); test: cholinesterase assay, absorbance at […] nm, microplate; assay type: biochemical, Amblyomma americanum; conditions: culture supernatant of baculovirus-infected Sf21 cells
T1 construct: pBlueBac4.5/V5-His in Sf21 cells (reverse primer appears to carry the native stop codon); unpurified culture supernatant

[2] = biological target: T1, rAaChE1 (recombinant AaChE1, A. americanum cholinesterase 1); test: cholinesterase inhibition assay, absorbance at […] nm; assay type: biochemical, Amblyomma americanum; set-up: unit not given here; conditions: 15 min preincubation, culture supernatant

## CC(=O)SCC[N+](C)(C)C [ATCh, acetylthiocholine]
[1]; read-out: KM
  Km: 6.39 µM

## C=CC[N+](C)(C)c1ccc(CCC(=O)CCc2ccc([N+](C)(C)CC=C)cc2)cc1 [BW284c51, 1,5-Bis(4-allyldimethylammoniumphenyl)pentan-3-one dibromide]
[2]
  (IC50) ^2 / rAaChE1 (ATCh Substrate): 2.96 × 10^−7 (2.50–3.50 × 10^−7)

## CCCC(=O)SCC[N+](C)(C)C [BuTCh, butyrylthiocholine]
[1]; read-out: apparent KM
  Km: 14.2 µM

## CCOP(=O)(OCC)Oc1ccc2c(C)c(Cl)c(=O)oc2c1 [Coroxon]
[2]; covalent
  (IC50) ^2 / rAaChE1 (ATCh Substrate): 2.35 × 10^−11 (1.93–2.84 × 10^−11)

## CNC(=O)Oc1ccc2c(c1)[C@]1(C)CCN(C)[C@@H]1N2C [Eserine]
[2]; covalent
  (IC50) ^2 / rAaChE1 (ATCh Substrate): 2.28 × 10^−10 (2.37–3.26 × 10^−10)

## CC(C)NP(=O)(NC(C)C)OP(=O)(NC(C)C)NC(C)C [Iso-OMPA]
[2]; covalent
  (IC50) ^2 / rAaChE1 (ATCh Substrate): 3.48 × 10^−05 (2.76–4.43 × 10^−5)

## CCOC(=O)CC(SP(=O)(OC)OC)C(=O)OCC (stereo not shown) [Malaoxon]
[2]; covalent
  (IC50) ^2 / rAaChE1 (ATCh Substrate): 2.77 × 10^−8 (2.45–3.14 × 10^−8)
